Here are results for 1 compound from EPA's ToxValDB 9.5 (doi:10.2903/j.efsa.2011.2162).

Values after ≈ are worked out from the molar mass of the structure shown.

In data set [1] the test system is Aphidius rhopalosiphi. The experiment in a line: LR50; higher = less toxic. As to conditions: acute; duration: 48 hours; mortality.
The test system of data set [2] is Rattus norvegicus.
Data set [3] relates to Colinus virginianus.
For data set [4], the system named is Cyprinodon variegatus. The settings on record: acute; duration: 96 hours; mortality.
Data set [5] deals with Aphidius rhopalosiphi. The settings on record: not reported; reproduction.
For data set [6], the system named is Apis mellifera. As to conditions: acute; duration: 48 hours; dermal; mortality.
In data set [7] the test system is Coturnix japonica. The settings on record: acute; oral; diet; mortality.
The test system of data set [8] is Oncorhynchus mykiss. As to conditions: chronic/long-term; duration: 96 days; growth.
Data set [9] concerns Tagia sp. The settings on record: acute; mortality.
Data set [10] deals with Lepomis macrochirus. The settings on record: acute; duration: 96 hours; mortality.
Data set [11] has as its system Daphnia magna. As to conditions: chronic/long-term; duration: 21 days; reproduction.
[12] abbreviates: reproduction developmental, reproduction.

The NOAEL is the highest tested level that showed no adverse finding.

As to `COP(=S)(OC)SCN1C(=O)c2ccccc2C1=O` [Phosmet], the LR50 in data set [1] worked out at 1.95 g/ha. Besides, the NOAEL in data set [2] (acute, neurology) was found to be 4.5 mg/kg-day; in [2] (setting [12]), 1 mg/kg-day; in [2] (subchronic, duration: 13 weeks, neurology), 1.5 mg/kg-day; in [2] (subchronic, duration: 90 days, oral, other), 2 mg/kg-day. In addition, the LD50 in data set [2] (acute, oral, mortality) turned out to be 113 mg/kg; in [3] (acute, oral, mortality) it was 57 mg/kg; in data set [6], 0.22 µg/piece. For the same compound, the NOEC in data set [3] (setting [12]) came out at 7.5 mg/kg-day; in data set [8], 0.0032 mg/L; in [11], 0.00078 mg/L. Besides, the LC50 is 0.17 µg/mL (≈ 0.536 µM) in data set [4], 406 mg/kg-day in [7], 104 mg/kg in data set [9] and 0.0197 µg/mL (≈ 0.0621 µM) in data set [10]. For the same compound, the LEL in [5] stood at 1.41 g/ha.
